{"source": "paper PMC11678869", "about": "“Functional Role of Odorant-Binding Proteins in Response to Sex Pheromone Component Z8-14:Ac in Grapholita molesta (Busck)” (Insects, 2024)", "key": {"OFM males": {"system": "OFM males", "test": "Field trapping with delta traps, peach orchard", "assay_type": "in vivo, Grapholita molesta", "settings": "for Inhibition Rate of OFM Males: vs 100:4:0", "procedure": "To determine the inhibitory effects on OFM male adults and the impact on the trapping effects of PFM male adults, varying amounts of Z8-14:Ac (0, 5, 10, 25, 50, 75, 100, 125, 150 μg) or Z10-14:Ac (0, 25, 50, 100, 150, 250, 350, 450, and 550 μg) were added to rubber septa loaded with a constant dosage of the main pheromone (500 μg of Z8-12:Ac and 20 μg of E8-12:Ac) of the PFM. Trapping experiments of Z8-14:Ac were carried out in peach and pear orchards in Yan’an and Xinjiang (China), respectively. Trapping tests of Z10-14:Ac were performed in pear orchards in Xinjiang (China). Each orchard had nine plots, with three plots in one field. Each plot consisted of a linear arrangement of traps loaded with a constant dosage of the main pheromones and different percentages of the secondary pheromone Z8-14:Ac or Z10-14:Ac of the PFM. Plots in the same field were placed 30 m apart, and fields were ≥1 km apart. The traps were hung 1.4 m from the ground on a suspension bracket between two rows of peach or pear trees from 10 June to 25 July 2021 in Xinjiang and from 15 June to 30 July 2021 in Yan’an. The positions of the traps within the plot were randomly arranged. Every 5 days, counts were taken, and the traps were rotated to the adjacent position to avoid any potential position effects. The septa loaded with sex pheromone components were replaced with new ones after every 15 days of suspension. The data were analyzed using a one-way ANOVA, and the differences in the average trapping of OFM and PFM males using sex attractants containing different amounts of Z8-14:Ac or Z10-14:Ac were further analyzed using Tukey’s HSD test, both of which were performed using SPSS 23.0."}, "OFM male antennae": {"system": "OFM male antennae", "test": "Electroantennogram (EAG) analysis", "design": "species or system Grapholita molesta", "procedure": "Electroantennogram (EAG) equipment (Syntech, Hilversum, The Netherlands) was used to record the antennal responses of the OFM and PFM adults to Z8-12:Ac, E8-12:Ac, Z8-12:OH, Z8-14:Ac, and Z10-14:Ac. These sex pheromone compounds were diluted with liquid paraffin to prepare a stimulus solution of 100 μg/μL, which was subsequently diluted to 10 and 1 μg/μL. Antenna from 3-day-old OFM and 2- to 4-day-old PFM virgin males were excised at its base, with the distal part of the terminal segment being removed. Then, the treated antenna was attached to electrode holders with SpectraR360 conducting gel. A stimulus controller (model CS-55, Syntegon Technology, Waiblingen, Germany) continuously supplied a humidified air stream at a rate of 500 mL/min. Then, 20 μL of each stimulus solution was adsorbed onto a twice-folded filter paper strip (0.5 cm × 4 cm) placed on the wide section of a l mL pipette tip, which served as an odorant cartridge. Vapor stimuli were delivered by an air compressor into the constant air stream described above, flowing in a copper delivery tube (i.d. 8 mm) with the outlet positioned approximately 1 cm from the antenna. The EAG amplitude tests of the OFM and PFM males’ responses to sex pheromones started with solvent control stimuli (20 μL of liquid paraffin), followed by stimulation with 20, 200, and 2000 μg doses (20 μL of 1.0, 10.0, and 100.0 μg/μL of liquid paraffin solutions, respectively) of stimulus in sequence. The solvent control was performed at the end of the run. To control for variations among antennae, each sample was tested on 10 antennae of different males. The EAG signals and data were analyzed using EAG 2000 software (Syntech, Hilversum, The Netherlands). The corrected EAG amplitude value = absolute EAG amplitude value − (EAGck1 + EAGck2)/2, where EAGck1 and EAGck2 represent the absolute EAG amplitude values of the solvent control before and after measuring each stimulus, respectively. The relative EAG response of the OFM and PFM males to the same doses of sex pheromones were subjected to an analysis of independent sample t-test (p = 0.05) using SPSS version 23.0 (IBM)."}, "[1]": {"settings": "peach orchard, Z8-12:Ac/E8-12:Ac/Z8-14:Ac 500/20/5 μg (100:4:1)"}, "[2]": {"settings": "peach orchard, Z8-12:Ac/E8-12:Ac/Z8-14:Ac 500/20/10 μg (100:4:2)"}, "[3]": {"settings": "peach orchard, Z8-12:Ac/E8-12:Ac/Z8-14:Ac 500/20/25 μg (100:4:5)"}, "[4]": {"settings": "peach orchard, Z8-12:Ac/E8-12:Ac/Z8-14:Ac 500/20/50 μg (100:4:10)"}, "[5]": {"settings": "peach orchard, Z8-12:Ac/E8-12:Ac/Z8-14:Ac 500/20/75 μg (100:4:15)"}, "[6]": {"settings": "peach orchard, Z8-12:Ac/E8-12:Ac/Z8-14:Ac 500/20/100 μg (100:4:20)"}, "[7]": {"settings": "peach orchard, Z8-12:Ac/E8-12:Ac/Z8-14:Ac 500/20/125 μg (100:4:25)"}, "[8]": {"settings": "peach orchard, Z8-12:Ac/E8-12:Ac/Z8-14:Ac 500/20/150 μg (100:4:30)"}}}
{"smiles": "CCCCC/C=C\\CCCCCCCOC(C)=O", "note": "[Z8-14:Ac, (Z)-8-tetradecenyl acetate]", "values": [{"measurement": "Total OFM Males/Trap", "setting": "OFM males; [1]", "result": "46.08±3.25", "unit": "b Males/Trap"}, {"measurement": "Inhibition Rate of OFM Males", "setting": "OFM males; [1]", "result": 58.81, "unit": "%"}, {"measurement": "Total OFM Males/Trap", "setting": "OFM males; [2]", "result": "40.89±2.35", "unit": "b Males/Trap"}, {"measurement": "Inhibition Rate of OFM Males", "setting": "OFM males; [2]", "result": 63.45, "unit": "%"}, {"measurement": "Total OFM Males/Trap", "setting": "OFM males; [3]", "result": "14.82±1.47", "unit": "c Males/Trap"}, {"measurement": "Inhibition Rate of OFM Males", "setting": "OFM males; [3]", "result": 86.75, "unit": "%"}, {"measurement": "Total OFM Males/Trap", "setting": "OFM males; [4]", "result": "9.04±1.08", "unit": "c Males/Trap"}, {"measurement": "Inhibition Rate of OFM Males", "setting": "OFM males; [4]", "result": 91.92, "unit": "%"}, {"measurement": "Total OFM Males/Trap", "setting": "OFM males; [5]", "result": "9.55±1.09", "unit": "c Males/Trap"}, {"measurement": "Inhibition Rate of OFM Males", "setting": "OFM males; [5]", "result": 91.46, "unit": "%"}, {"measurement": "Total OFM Males/Trap", "setting": "OFM males; [6]", "result": "9.67±1.52", "unit": "c Males/Trap"}, {"measurement": "Inhibition Rate of OFM Males", "setting": "OFM males; [6]", "result": 91.36, "unit": "%"}, {"measurement": "Total OFM Males/Trap", "setting": "OFM males; [7]", "result": "6.86±0.24", "unit": "c Males/Trap"}, {"measurement": "Inhibition Rate of OFM Males", "setting": "OFM males; [7]", "result": 93.87, "unit": "%"}, {"measurement": "Total OFM Males/Trap", "setting": "OFM males; [8]", "result": "7.96±1.19", "unit": "c Males/Trap"}, {"measurement": "Inhibition Rate of OFM Males", "setting": "OFM males; [8]", "result": 92.88, "unit": "%"}, {"measurement": "reduction of the number of OFM males caught", "setting": "OFM males; peach orchard, adding 5–30% of Z8-14:Ac to Z8-12:Ac and E8-12:Ac", "result": "more than 86%"}, {"measurement": "reduction of the capture of OFM males", "setting": "OFM males; peach orchards, adding 1–2% of Z8-14:Ac to Z8-12:Ac and E8-12:Ac (100:4)", "result": "58.81–63.45%"}, {"measurement": "EAG values of OFM males compared with PFM males", "setting": "OFM male antennae; 20, 200 and 2000 μg", "result": "significantly higher than those of the PFM males"}, {"measurement": "EAG response of OFM males", "setting": "OFM male antennae; 20, 200 and 2000 μg doses", "result": "moderate EAG response"}]}
